Columns and labels:
Glk (BT2493) = biological target: T1, Glk (BT2493) (Bacteroides thetaiotaomicron, UniProt Q8A4V4); experiment: glucokinase activity in vitro, coupled NADH oxidation, […] nm; type: biochemical; details: 50 mM Tris pH 7.4, 3 mM MgCl2, 10 mM NH4Cl; data only in supplement
T1 sequence (Q8A4V4 1-326): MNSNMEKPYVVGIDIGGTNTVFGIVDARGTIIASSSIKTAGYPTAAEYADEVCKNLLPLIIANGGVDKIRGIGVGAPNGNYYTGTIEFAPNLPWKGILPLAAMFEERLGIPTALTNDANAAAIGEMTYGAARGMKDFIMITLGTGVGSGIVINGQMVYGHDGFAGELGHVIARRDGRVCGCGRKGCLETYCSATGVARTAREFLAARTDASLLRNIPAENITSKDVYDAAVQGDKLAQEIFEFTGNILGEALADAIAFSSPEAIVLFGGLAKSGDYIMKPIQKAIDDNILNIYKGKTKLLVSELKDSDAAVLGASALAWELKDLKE

[1] = system: Cur (Bacteroides thetaiotaomicron VPI-5482); experiment: EMSA

Row | Compound | glucokinase activity in vitro, coupled NADH oxidation, 340 nm (Glk (BT2493)) | Kd [1] [pmol]
1 | OC[C@H]1OC(O)[C@H](O)[C@@H](O)[C@@H]1O (some centres unmarked) [glucose] | We determined that Glk exhibits glucokinase activity in vitro (Supplementary Fig. 4a) | –
2 | fusA2 promoter probe (wild-type) | – | 4.97

Source: article PMC12078602 (Nature Communications, 2025)
